Values of other authors, collected in patent US10537540B2, “Pharmaceutical composition for promoting nerve injury restoration and application thereof” (priority 2012, dated 2020).

What was measured:
[1] = intravenous infusion of 5 g
[2] = test system: rat spinal cord injury model

SMILES | Urine induced [1] | Lipid peroxidation and free radicals after spinal cord injury [2]
Cc1ncc(CO)c(CO)c1O.Cl [vitamin B6] | about 380 mL | –
Cc1c(C)c2c(c(C)c1OP(=O)([O-])OC1=C(O)[C@@H]([C@@H](O)CO)OC1=O)CC[C@@](C)(CCC[C@H](C)CCC[C@H](C)CCCC(C)C)O2.[K+] [EPC-K1] | – | significantly block lipid peroxidation and remove free radicals
